Columns and labels:
jack-bean urease = biological target: T1, jack-bean urease (Canavalia ensiformis, UniProt P07374); test: biochemical
T1 construct: purchased Sigma Aldrich
Procedure: The assay mixture, containing 50 μL (2 mg/mL) of jack-bean urease (purchased from Sigma Aldrich) and 100 μL of different concentration of test compounds, which were previously dissolved in ethanol 20%, was added to 850 μL of 25 mM urea and pre-incubated for 0.5 h in a water bath at 37 °C. The urease reaction was stopped after 30 min incubation by following procedure.
Urease activity was determined by measuring ammonia production using the indophenol method, as described by Weatherburn. After pre-incubation, 500 μL of phenol reagent (1% w/v phenol and 0.005% w/v sodium nitroprusside) and 500 μL of alkali reagent (1% w/v NaOH and 0.075% active chloride NaOCl) were added to 100 μL of incubation mixture and kept at 37 °C for 30 min. The absorbance was measured at 625 nm. All experiments were performed in triplicate in a final volume of 1 mL, and thiourea was used as a standard urease inhibitor.
Percentage inhibitions were calculated using the formula:(100 − (OD sample/OD control) × 100)
The IC50 values were then calculated using GraphPad Prism 5 software.

[1] = biological target: α-glucosidase from Saccharomyces cerevisiae; test: α-Glucosidase inhibition assay (chromogenic method, p-nitrophenyl-α-D-glucopyranoside); assay type: biochemical; conditions: pH 6.9, 37 °C; read-out: α Glucosidase Inhibition (IC50 ± S.E.M)
Procedure: α-glucosidase from Saccharomyces cerevisiae was purchased from Sigma Aldrich. […] The test samples were prepared (200 µg/mL) in DMSO and 10 μL of each sample was added to 20 μL of α-glucosidase solution (prepared in 120 μL of 0.1 M phosphate buffer, pH 6.9) in a 96-well plate format and incubated for 15 min at 37 °C. After incubation, 20 μL p-nitrophenyl-α-D-glucopyranoside (5 mM) solution was added to this mixture and incubated for a further 15 min. Finally, 80 µL of Na2CO3 solution (0.2 M) was added to this solution to stop the reaction and the absorbance was measured at 410 nm with SpectraMax microplate reader, M2. […] The α-glucosidase inhibition (%) was calculated with the help of the following formula:Inhibition (%) = (Absorbance of Control − Absorbance of Sample)/(Absorbance of Control) × 100
The IC50 values of the active samples were calculated using regression equation by plotting % inhibition at various concentrations.

T1 sequence (P07374 whole entry, looked up): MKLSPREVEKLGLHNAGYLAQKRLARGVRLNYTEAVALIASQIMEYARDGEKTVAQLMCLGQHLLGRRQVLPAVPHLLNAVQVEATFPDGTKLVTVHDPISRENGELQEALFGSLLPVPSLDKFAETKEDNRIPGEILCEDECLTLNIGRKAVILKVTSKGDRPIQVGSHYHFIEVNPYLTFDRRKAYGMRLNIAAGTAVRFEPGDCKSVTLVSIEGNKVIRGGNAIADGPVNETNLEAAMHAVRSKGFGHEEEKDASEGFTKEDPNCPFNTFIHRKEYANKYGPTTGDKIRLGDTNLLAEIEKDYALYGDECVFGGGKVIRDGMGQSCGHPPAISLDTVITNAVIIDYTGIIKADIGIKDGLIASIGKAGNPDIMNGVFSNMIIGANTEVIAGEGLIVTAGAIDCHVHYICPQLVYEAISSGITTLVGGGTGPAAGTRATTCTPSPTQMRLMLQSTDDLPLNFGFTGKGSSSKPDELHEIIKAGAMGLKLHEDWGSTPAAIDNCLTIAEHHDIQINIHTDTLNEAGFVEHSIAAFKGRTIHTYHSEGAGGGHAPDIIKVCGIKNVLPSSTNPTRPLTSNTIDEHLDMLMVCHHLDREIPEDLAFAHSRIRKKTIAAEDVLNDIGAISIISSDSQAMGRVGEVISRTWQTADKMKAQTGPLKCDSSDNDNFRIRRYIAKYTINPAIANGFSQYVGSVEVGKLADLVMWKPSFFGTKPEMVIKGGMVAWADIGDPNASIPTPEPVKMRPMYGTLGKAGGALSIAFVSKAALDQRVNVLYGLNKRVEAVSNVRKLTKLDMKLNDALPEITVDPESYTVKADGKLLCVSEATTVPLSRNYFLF

Structure (SMILES)	IC50 (jack-bean urease)	IC50 [1]
CO[C@H]1C(=O)C=C(C)[C@H](/C=C/C(C)=O)C1(C)C (relative stereo) [Compound 3, (4S,6R)-6-methoxy-3,5,5-trimethyl-4-((E)-3-oxobut-1-en-1-yl)cyclohex-2-en-1-one]	10.46 ± 0.03 µM	310.68 ± 0.05 µM
COC(=O)/C=C/[C@H]1C(C)=CC(=O)[C@H](OC)C1(C)C (relative stereo) [Compound 2, methyl (E)-3-((1S,5R)-5-methoxy-2,6,6-trimethyl-4-oxocyclohex-2-en-1-yl)acrylate]	13.71 ± 0.07 µM	294.18 ± 0.07 µM
CCOC(=O)/C=C/[C@H]1C(C)=CC(=O)[C@H](OC)C1(C)C (relative stereo) [Compound 1, ethyl (E)-3-((1S,5R)-5-methoxy-2,6,6-trimethyl-4-oxocyclohex-2-en-1-yl)acrylate]	16.87 ± 0.02 µM	331.47 ± 0.04 µM

Reference: PMC9370616, “Three New Acrylic Acid Derivatives from Achillea mellifolium as Potential Inhibitors of Urease from Jack Bean and α-Glucosidase from Saccharomyces cerevisiae” (Molecules, 2022)
